The results in this text go back to a melting point compilation (Tetko et al.; mined from patent text by program, amines drawn as free bases though some values may be those of a salt).

Broadly, the melting point is the temperature, or range, at which the solid turns liquid.

As to `CCSc1cc(C)nc(SCC)c1NC(=O)CCCCCCCCSc1nc2ccccc2[nH]1`, the melting point lay within 76 to 78 °C.
Turning to `C=C(c1ccc(OC)cc1)c1cc(C(=C)c2ccc(OC)cc2)cc(C(=C)c2ccc(OC)cc2)c1`, the melting point lay in the range of 116 to 118 °C.
The value for `CCOC(=O)OCC(F)(F)Cn1nc(C)c(-c2ccc3c(c2)NC(=O)CO3)c1-c1ccc(F)cc1` was 142 °C; that for `CC(C)C(=O)OC1c2nccnc2C(=O)N1c1ccc2ccc(Cl)nc2n1` (stereo not drawn) was 260 to 262 °C.
In turn, `Cc1cc(C)c(Nc2nc(C)ncc2S(=O)(=O)c2ccc(O)cc2)c(C)c1` returned a melting point of 246 to 248 °C.
`CC(C)(C)OC(=O)N1C=CN(CC#N)C(=O)[C@@H]1Cc1ccccc1` came in with a melting point of 160 to 162 °C.
Regarding `N#Cc1[nH]ccc1-c1ccccc1Cl`, the melting point was in the range of 114 to 115 °C.
The value for `CC(OCn1cc(Cl)cnc1=O)c1ccccc1` (stereo not drawn) was 139 °C; that for `O=Cc1c(O)cccc1[N+](=O)[O-]` was 52 to 53 °C.
The figure for `COc1ccccc1CNc1ccc2cc(Nc3nnc(C4CC4)o3)ccc2n1` is 199 °C; for `COc1cn(-c2cc(-c3cnn(C)c3)ccc2F)nc(-c2ccnn2-c2ccccc2)c1=O` it is 93 to 102 °C; for `CS(=O)c1cnc2c(c1)CCC(c1ccc(Cl)c(Cl)c1)O2` (stereo not drawn) it is 159 to 162 °C.
For `CCc1ccc2c(c1)C=Cc1cc(C)ccc1C2c1cn(-c2ccnc(N3CC(C(=O)Nc4nnn[nH]4)C3)n2)c(=O)[nH]c1=O` (stereo not drawn), the melting point is 252 °C.
The molecule `CCOC(=O)NC(Cc1ccccc1)c1ccccc1` (stereo not drawn) returned a melting point of 74 to 75 °C.
`N#Cc1cnc2scc(Br)c2c1Br` returned a melting point of 204 to 206 °C.
The value for `Nc1nc(F)cc(F)n1` was 193 to 196 °C.
The value for `Cc1cccc(-c2c(C(N)=O)n(C)c(=O)c3ncccc23)c1` was over 310 °C.
Take `OC(c1ccccc1)(c1ccccn1)C1CCN(Cc2ccccc2)CC1` (stereo not drawn): the melting point was 142 to 143 °C.
The value for `CCOc1ccc(-n2c(Cl)ccc2-c2ccc(S(N)(=O)=O)cc2)cc1` was 124 to 125 °C; that for `CC(C)(C)C(=O)C(Oc1ccc(Cl)cc1)c1cccnc1` (stereo not drawn) was 50 °C; that for `N#CNC(=N)CCCc1ccccc1Sc1ccccc1CCCC(=N)NC#N` was 155 to 157 °C.
As to `Cc1ccc(C2c3c(C)c(N4CCN(C(=O)c5ccc(C#N)cc5)CC4)c(C)c(C)c3OC2(C)C)cc1` (stereo not drawn), the melting point lay in the range of 159 to 161 °C.
The value for `CCOC(=O)COc1ccc(C(=O)Nc2ccccc2S(=O)(=O)c2ccccc2-c2nnn[nH]2)cc1` was 162 to 163 °C; that for `O=C(NC/C=C/c1ccccc1)c1cccs1` was 110 °C.
`O=C(NCC1CCCCC1)c1c(Cl)ccc2nc(N3CC(O)C3)ccc12` displayed a melting point of 206 to 208 °C.
The figure for `Cc1ccc(S(=O)(=O)N2CCCC2c2cccc(C)c2)cc1` (racemic) is 79 °C.
Take `CCOC(=O)c1cn2c(=O)n(C)c3ccccc3n2c1=O`: the melting point was in the range of 243 to 244 °C.
The figure for `COc1cc2scc(C(=O)Nc3cccnc3)c2cc1Br` is 160 to 161 °C; for `CC(C)(C)N(NC(=O)c1ccccc1)C(=O)c1cccnc1` it is 60 to 63 °C.
The value for `N#Cc1ccc(C(=O)Cl)c(CCl)c1` was 44 to 44.5 °C; that for `COC(=O)c1ccc(N2CCSC2=N)c([N+](=O)[O-])c1` was 156 °C.
The value for `O=C(NCC1CCN(C[C@H]2COc3ccc(Cl)cc3O2)CC1)c1ccccn1` was 110 to 112 °C; that for `COc1ccc(CCNC(=O)OC(C)(C)C)cc1OC` was 63 to 67 °C.
`COc1cc2ncnc(N3CCN(C(=O)Nc4ccc(N)cc4)CC3)c2cc1OC` had a melting point of 215 to 217 °C.
The value for `C#CCN(C(=O)n1oc(C)c(Cl)c1=O)c1ccc(C)cc1` was 79 °C; that for `COc1cccc(OC)c1C(=O)Nc1cc(C(C)(C)C)n[nH]1` was 176 to 178 °C.
On to `Cc1nc(N2CCc3ccccc3CC2)c(C#N)c(=O)n1N(CC(F)(F)F)C(=O)OC(C)(C)C`, for which the melting point was in the range of 86 to 88 °C.
The value for `CCN(Cc1ccccc1OCc1ccccc1)c1ccc(C(=O)O)cc1` was 165 °C.
The value for `Nc1nc(N)nc(OCc2ccccc2)n1` was 184 to 185 °C; that for `CNC(=NC#N)NCCCSc1nccc(NC(N)=NCC(F)(F)F)n1` was 159 to 160 °C.
The figure for `COc1ccc(CCl)c(C)c1OC` is 67 to 68.5 °C; for `COc1ccc2cc3c(Nc4ccc(Cl)cc4Cl)c(C#N)cnc3cc2c1` it is over 260 °C.
As to `CSCCC(NCc1cc(Br)cc(Br)c1N)C(=O)O` (stereo not drawn), the melting point came to 212 °C.
The value for `CCOC(=O)c1cc(O[C@@H]2c3c(C)ccc(C)c3C[C@H]2O)c2nc(C)n(C)c2c1` (relative stereo) was 184 °C; that for `CCOC(=O)C1Cc2cc(-c3noc4ccccc34)c(Cl)c(Cl)c2O1` (stereo not drawn) was 114 to 116 °C; that for `COCc1cc(O)c2nc(C)c(C)n2c1` was 164 to 165 °C.
The value for `CCOC(=O)[C@H]1CC(OS(=O)(=O)c2ccc(C)cc2)CN1S(=O)(=O)c1ccc(C)cc1` (stereo partly drawn) was 93 °C; that for `CN(C(=O)c1ccc2c(c1)nc(NC(=O)c1cccs1)n2CCCO)C1CCCCC1` was 105 to 107 °C; that for `Cc1cc2c(cc1-c1ccc(C=CC(=O)O)s1)C(C)(C)CCC2(C)C` was 175 to 177 °C.
In turn, `O=C(O)COc1cccc2c1CCc1sc(S(=O)(=O)C(c3ccccc3)c3ccccc3)nc1-2` showed a melting point of 219 to 221 °C.
The value for `CCOc1ccc2c(c1)n(C13CC4CC(CC(C4)C1)C3)c(=O)n2S(=O)(=O)c1ccc([N+](=O)[O-])cc1OC` was 231 °C; that for `Cc1cc(Nc2c3ccccc3nc3ccccc23)ccc1N` was 256 to 257 °C; that for `CN1N=C2c3cc(F)ccc3SCC2CC1=O` (stereo not drawn) was 125 to 128 °C.
The value for `N#Cc1ccc(-c2c3c(cc4ccc(O)cc24)-c2ccc(O)cc2CO3)cc1` was over 250 °C.
The molecule `CCOc1c(C(N)=O)oc2c3ccccc3n(-c3ccccc3)c12` showed a melting point of 187 to 188 °C.
The figure for `CC/C(=N\OCCCOc1ccc(C(=O)O)c(NC(=O)c2ccc(C(F)(F)F)cc2)c1)c1ccc(C(C)(C)C)cc1` is 149 to 151 °C.
The value for `COCCOc1ccc(CCNC(=O)C=Cc2ccc(OC)cc2OC)cc1S(N)(=O)=O` was 175 to 178 °C; that for `CCN(CC)CCOc1ccc(Nc2ncc3c(n2)N(C)C(=O)N(C(C)(C)C)C3)cc1` was 130 °C.
The value for `CC(C)C(=O)N[C@@H](CS)C(=O)O` was 103 to 104 °C; that for `O=c1nc(-c2cccc(S(=O)(=O)CCCc3ccccc3)n2)sc2ccccc12` was 150 to 151 °C; that for `COc1cc(C(=O)O)c(OC)c2c1C(C)(C)CCC2(C)C` was 187 °C.
Take `CCOCc1nc2c(N)nc3cccnc3c2n1CCCON=C1CCN(C)CC1`: the melting point fell in the range of 111 to 112 °C.
The figure for `CCC(=Nc1ccc2nc(N3CCN(C)CC3)c(N3CCN(C)CC3)nc2c1)N(C)C` is 173 to 175 °C; for `CCOC(=O)COc1ccc(C(=O)c2ccccc2O)c(Cl)c1Cl` it is 108 to 110 °C.
The figure for `CC(=O)Oc1cc(C(C)C)c(NC(=O)CN2CCN(CCSc3nc4ccccc4o3)CC2)c(C(C)C)c1` is 126 to 129 °C; for `CN(C)C(=O)CC1(C)OCCc2c1[nH]c1c3c(ccc21)CCCC3` (stereo not drawn) it is 176 to 178 °C.
The figure for `O=C(Nc1cccc(C(F)(F)F)c1)C12CC3CC(CC(C3)C1)C2` is 171 to 174 °C.
For the molecule `C[C@H]1C[C@@](O)(c2cccc(Sc3cc4c(cc3F)N(C)C(=O)CC4)c2)CCO1`, the melting point lay in the range of 90 to 92 °C.
In the case of `COc1ccc(C(=O)Nc2ccc(Cl)c(Cl)c2)cc1NS(C)(=O)=O`, the melting point was 226 to 228 °C.
The value for `COC(=O)n1c(SCc2ccccn2)nc2ccccc21` was 78 °C; that for `CC(=O)N(CCN1CCC(Nc2nc3ccccc3n2Cc2ccc(F)cc2)CC1)c1nccs1` was 186 to 193 °C.
For `CCCc1nc(-n2cccc2)c(C#N)[nH]1`, the melting point lay in the range of 75 to 78 °C.
The figure for `CCCN1CCc2c(ccc3[nH]c(=O)c(=O)[nH]c23)C1` is 340 to 350 °C.
Take `Oc1cccc(-c2noc3ccsc23)c1`: the melting point was in the range of 114 to 116 °C.
The value for `CC(C)=Cn1ccnc1[N+](=O)[O-]` was 77 to 79 °C.
For `COC(=O)CCC(=O)Oc1c(C)n(Cc2ccccc2)c2c(OCc3ccccc3)nncc12`, the melting point lay within 189 to 190 °C.
The figure for `CCCCCCCCCCC1SCCCN1C(=S)Nc1cccc(Br)c1` (stereo not drawn) is 73 to 74 °C; for `Cc1cc(-n2ccnc2)c2cccc(OCc3c(Cl)ccc(N(C)C(=O)CN4C(=O)c5ccccc5C4=O)c3Cl)c2n1` it is 200 to 203 °C.
On to `O=c1cc2c(nn1-c1ccc(Cl)cc1)-c1ccccc1S(=O)CC2` (stereo not drawn), for which the melting point was 233 to 234 °C.
`OCCCc1cncn1Cc1noc2ccccc12` showed a melting point of 129 to 131 °C.
The figure for `CS(=O)(=O)c1c(C#N)nn(-c2c(Cl)cc(C(F)(F)F)cc2Br)c1N` is 235 to 238 °C; for `CCc1[nH]n(C2CCCC2)c2nc(Cc3ccc(OC)c(OC)c3)nc(=O)c1-2` it is 148 to 149 °C.
The figure for `COc1ccc2c(c1)C(C)N(C)C(=O)C2c1cc(OC)c(OC)c(OC)c1` (stereo not drawn) is 135 to 140 °C; for `COc1cc2c(cc1-c1nc3cc(Cl)ccc3o1)oc1ccccc12` it is 191 to 193 °C; for `COCOc1ccc(-c2ncc3ncc(N4CCNCC4=O)cc3n2)cc1` it is 200 to 202 °C.
Molecule `CC(=O)Nc1cc(Br)nn1-c1c(Cl)cc(C(F)(F)F)cc1Cl` yielded a melting point of 180 to 187 °C.
The figure for `CCCCc1ccc(S(=O)(=O)Nc2nncs2)cc1` is 120 to 121 °C; for `CC(C)(C)OC(=O)c1cc2ccccc2[nH]1` it is 104 to 105 °C.
